Laboratory results from ChEMBL document CHEMBL5465560, “Selectivity Literature for EUbOPEN Chemogenomic Library” (2024).

Legend:
[1] = biological target: T1, Tyrosine-protein kinase JAK3 (Homo sapiens) (UniProt P52333); assay: Selectivity interaction (KinomeScan (DiscoverX)) EUB0001079a JAK3; conditions: at 1 µM
T1 sequence (whole entry): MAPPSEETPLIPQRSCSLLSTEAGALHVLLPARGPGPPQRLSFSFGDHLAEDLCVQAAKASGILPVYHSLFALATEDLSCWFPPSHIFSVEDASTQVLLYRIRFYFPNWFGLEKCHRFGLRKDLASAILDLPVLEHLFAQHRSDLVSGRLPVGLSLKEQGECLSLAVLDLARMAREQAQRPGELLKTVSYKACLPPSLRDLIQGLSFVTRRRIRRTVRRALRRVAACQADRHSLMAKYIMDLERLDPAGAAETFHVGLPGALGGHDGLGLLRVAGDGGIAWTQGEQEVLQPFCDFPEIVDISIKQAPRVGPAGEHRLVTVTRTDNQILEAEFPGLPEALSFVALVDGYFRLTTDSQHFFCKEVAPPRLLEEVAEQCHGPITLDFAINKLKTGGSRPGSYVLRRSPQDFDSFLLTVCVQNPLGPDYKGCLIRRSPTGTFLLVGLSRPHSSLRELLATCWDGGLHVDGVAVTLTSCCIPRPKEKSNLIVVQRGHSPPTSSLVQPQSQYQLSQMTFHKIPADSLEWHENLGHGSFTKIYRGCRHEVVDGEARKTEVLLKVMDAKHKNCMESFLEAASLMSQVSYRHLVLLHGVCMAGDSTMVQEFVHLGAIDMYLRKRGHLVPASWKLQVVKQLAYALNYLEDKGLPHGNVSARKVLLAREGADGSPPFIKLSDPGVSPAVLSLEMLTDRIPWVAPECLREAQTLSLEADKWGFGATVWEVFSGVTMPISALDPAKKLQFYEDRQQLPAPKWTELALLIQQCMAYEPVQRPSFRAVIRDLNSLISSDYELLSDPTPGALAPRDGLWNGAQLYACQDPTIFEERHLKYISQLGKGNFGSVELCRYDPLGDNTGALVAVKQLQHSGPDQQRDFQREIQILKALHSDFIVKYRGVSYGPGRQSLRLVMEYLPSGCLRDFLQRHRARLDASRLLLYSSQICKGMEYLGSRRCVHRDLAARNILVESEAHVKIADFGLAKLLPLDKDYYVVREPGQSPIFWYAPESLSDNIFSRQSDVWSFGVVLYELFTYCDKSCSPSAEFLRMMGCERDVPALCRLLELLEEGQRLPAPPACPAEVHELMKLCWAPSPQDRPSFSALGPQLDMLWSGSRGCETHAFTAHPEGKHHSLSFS

[2] = biological target: MAP kinase-activated protein kinase 3 (Homo sapiens) (UniProt Q16644); assay: Selectivity interaction (ProQinase) EUB0000171b MAPKAPK3
[3] = biological target: T2, Phosphatidylinositol 5-phosphate 4-kinase type-2 alpha (Homo sapiens) (UniProt P48426); conditions: at 1 µM
T2 sequence (whole entry): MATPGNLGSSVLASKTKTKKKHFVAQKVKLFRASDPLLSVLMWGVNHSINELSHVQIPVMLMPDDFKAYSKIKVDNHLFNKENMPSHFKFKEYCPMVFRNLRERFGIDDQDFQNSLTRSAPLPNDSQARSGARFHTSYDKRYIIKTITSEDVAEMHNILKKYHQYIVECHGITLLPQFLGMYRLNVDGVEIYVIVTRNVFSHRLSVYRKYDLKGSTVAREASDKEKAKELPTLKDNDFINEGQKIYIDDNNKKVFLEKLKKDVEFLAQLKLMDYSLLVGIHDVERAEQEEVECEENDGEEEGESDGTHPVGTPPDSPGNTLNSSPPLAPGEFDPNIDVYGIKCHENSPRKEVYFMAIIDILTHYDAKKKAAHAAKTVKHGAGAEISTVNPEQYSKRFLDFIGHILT

[4] = biological target: T3, Peregrin (Homo sapiens) (UniProt P55201); assay: Selectivity interaction (Human bromodomain panel (DSF assay)) EUB0000233b BRPF1
T3 sequence (whole entry): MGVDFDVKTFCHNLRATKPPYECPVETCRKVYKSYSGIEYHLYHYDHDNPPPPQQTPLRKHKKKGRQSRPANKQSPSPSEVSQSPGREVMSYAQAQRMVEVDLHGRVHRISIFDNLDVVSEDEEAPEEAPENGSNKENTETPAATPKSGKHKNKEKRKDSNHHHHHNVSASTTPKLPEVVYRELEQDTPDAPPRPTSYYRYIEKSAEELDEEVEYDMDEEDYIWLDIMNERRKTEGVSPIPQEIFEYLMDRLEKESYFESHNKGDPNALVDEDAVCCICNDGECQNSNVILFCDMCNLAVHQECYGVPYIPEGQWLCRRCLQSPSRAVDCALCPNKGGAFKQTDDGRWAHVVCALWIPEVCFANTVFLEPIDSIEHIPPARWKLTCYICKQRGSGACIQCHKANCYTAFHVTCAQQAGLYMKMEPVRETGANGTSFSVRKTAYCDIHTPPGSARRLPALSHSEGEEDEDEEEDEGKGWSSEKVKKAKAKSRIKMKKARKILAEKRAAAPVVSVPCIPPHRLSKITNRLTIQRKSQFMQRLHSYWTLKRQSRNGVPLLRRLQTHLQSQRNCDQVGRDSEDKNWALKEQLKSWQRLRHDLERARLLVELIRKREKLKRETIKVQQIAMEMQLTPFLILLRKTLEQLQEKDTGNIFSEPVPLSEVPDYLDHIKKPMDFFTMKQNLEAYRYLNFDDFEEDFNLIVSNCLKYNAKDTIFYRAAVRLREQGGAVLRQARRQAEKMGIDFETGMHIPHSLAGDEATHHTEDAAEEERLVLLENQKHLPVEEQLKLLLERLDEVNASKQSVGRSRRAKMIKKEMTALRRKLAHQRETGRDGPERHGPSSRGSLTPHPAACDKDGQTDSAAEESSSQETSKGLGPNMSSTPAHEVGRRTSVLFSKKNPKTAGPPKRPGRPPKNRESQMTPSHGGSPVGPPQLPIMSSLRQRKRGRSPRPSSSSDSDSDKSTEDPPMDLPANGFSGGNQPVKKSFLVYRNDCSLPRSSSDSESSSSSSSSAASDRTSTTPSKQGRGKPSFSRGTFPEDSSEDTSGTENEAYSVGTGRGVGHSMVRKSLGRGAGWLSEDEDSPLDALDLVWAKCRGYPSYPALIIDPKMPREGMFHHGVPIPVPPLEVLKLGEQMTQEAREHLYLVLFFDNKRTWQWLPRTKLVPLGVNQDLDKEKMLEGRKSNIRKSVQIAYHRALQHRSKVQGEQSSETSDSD

[5] = system: Epidermal growth factor receptor (Homo sapiens), P00533 [UNDEFINED MUTATION]; assay: Selectivity interaction (KinomeScan (DiscoverX)) EUB0000045b EGFR; conditions: at 1 µM
[6] = biological target: Mitogen-activated protein kinase 11 (Homo sapiens) (UniProt Q15759); assay: Selectivity interaction (KinomeScan (DiscoverX)) EUB0000618a MAPK11; conditions: at 10 µM
Mitogen-activated protein kinase 11 (Homo sapiens), sequence (Q15759 whole entry): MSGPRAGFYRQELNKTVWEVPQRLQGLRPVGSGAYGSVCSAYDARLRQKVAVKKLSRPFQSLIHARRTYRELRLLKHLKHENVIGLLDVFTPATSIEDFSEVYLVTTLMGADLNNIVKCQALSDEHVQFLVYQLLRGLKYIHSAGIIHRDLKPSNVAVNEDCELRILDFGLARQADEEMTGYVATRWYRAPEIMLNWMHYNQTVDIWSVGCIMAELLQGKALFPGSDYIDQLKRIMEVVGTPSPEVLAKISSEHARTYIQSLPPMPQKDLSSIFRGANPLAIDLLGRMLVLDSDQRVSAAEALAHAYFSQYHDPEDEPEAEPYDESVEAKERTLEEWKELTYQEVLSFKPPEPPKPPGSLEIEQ

MAP kinase-activated protein kinase 3 (Homo sapiens), sequence (Q16644 whole entry, looked up): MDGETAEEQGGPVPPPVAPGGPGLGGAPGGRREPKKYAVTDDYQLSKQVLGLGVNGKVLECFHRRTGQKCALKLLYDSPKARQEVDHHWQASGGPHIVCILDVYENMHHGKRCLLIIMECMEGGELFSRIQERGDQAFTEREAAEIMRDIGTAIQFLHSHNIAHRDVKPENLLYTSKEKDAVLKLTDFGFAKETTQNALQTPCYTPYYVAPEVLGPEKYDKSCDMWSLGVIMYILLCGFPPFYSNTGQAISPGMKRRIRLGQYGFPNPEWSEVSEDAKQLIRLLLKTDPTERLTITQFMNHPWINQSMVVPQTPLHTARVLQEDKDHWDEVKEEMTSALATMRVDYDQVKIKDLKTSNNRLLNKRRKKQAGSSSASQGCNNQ
Epidermal growth factor receptor (Homo sapiens), P00533 [UNDEFINED MUTATION], sequence (P00533 whole entry, looked up, change not shown): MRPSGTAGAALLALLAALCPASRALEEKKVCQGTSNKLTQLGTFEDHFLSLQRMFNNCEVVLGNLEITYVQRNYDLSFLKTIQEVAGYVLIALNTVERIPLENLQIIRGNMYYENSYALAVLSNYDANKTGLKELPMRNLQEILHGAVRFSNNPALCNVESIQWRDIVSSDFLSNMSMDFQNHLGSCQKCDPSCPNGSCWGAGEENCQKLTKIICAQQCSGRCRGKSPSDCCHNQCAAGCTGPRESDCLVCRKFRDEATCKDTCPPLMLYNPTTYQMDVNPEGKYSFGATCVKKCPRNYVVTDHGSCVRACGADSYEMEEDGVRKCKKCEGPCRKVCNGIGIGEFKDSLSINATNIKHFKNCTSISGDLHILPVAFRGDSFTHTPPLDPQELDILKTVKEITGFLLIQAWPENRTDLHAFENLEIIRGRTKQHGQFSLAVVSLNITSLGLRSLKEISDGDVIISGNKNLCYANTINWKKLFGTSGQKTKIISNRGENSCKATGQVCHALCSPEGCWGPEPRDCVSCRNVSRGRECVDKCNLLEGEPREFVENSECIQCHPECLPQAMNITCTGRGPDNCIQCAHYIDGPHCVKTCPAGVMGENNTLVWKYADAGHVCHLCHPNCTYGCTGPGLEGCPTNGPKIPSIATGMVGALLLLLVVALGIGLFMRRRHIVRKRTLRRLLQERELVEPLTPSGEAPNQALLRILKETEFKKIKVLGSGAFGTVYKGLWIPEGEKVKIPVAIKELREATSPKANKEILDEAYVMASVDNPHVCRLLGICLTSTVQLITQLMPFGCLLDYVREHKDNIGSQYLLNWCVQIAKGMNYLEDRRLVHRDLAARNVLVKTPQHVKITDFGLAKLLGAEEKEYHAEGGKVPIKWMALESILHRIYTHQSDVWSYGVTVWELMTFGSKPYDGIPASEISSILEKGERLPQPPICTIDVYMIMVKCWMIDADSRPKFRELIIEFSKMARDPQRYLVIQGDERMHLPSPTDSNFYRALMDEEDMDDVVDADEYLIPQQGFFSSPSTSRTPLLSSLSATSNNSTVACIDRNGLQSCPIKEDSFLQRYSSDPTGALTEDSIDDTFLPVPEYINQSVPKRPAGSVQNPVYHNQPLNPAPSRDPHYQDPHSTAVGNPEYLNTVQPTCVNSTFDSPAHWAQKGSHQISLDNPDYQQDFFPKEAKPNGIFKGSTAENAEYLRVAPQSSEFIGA

Nc1cnc(N2CCc3cc(S(=O)(=O)Nc4c(F)cc(Cl)cc4F)cc(N4CCCC4=O)c32)nc1 [TP-020n]
% of control [1]: 100%

C=CC(=O)Nc1cccc(C(=O)Nc2ccc(Nc3cc(-c4[nH]c(SC)nc4C)ccn3)cc2)c1
% of control ([2]; at 1 µM): 100%
% of control ([2]; at 5 µM): 65%

CC[C@@H](Nc1c(C#N)c(-c2ccc(-c3cccc(C)c3F)cc2)nc2cnccc12)C(=O)O [BAY-091]
% of inhibition [3]: 142%

CN(C)CCCOc1ccc(-c2cc(NCCCn3cccn3)nc(S(C)(=O)=O)n2)cc1
dTM [4]: < 2 K

C=CC(=O)Nc1cc(-n2c(=O)ccc3cnc4ccc(-c5ccc(NS(C)(=O)=O)cc5)cc4c32)ccc1C
% of control [5]: 66%

O[C@H]1CC[C@H](Nc2ncc3nc(Nc4c(F)cc(F)cc4F)n([C@H]4CCOC4)c3n2)CC1
% of control [6]: 24%
